Experimental data from patent publication US20220402872A1, “PHOTOPOLYMERIZABLE ANTIBACTERIAL MONOMER” (UNIVERSITA' DEGLI STUDI DI TRIESTE, priority 2019, published 2022).

Key:
Format in all cases: cell-based
[1] = system: bacteria grown on agar; test: Determination of bacterial inhibition - agar diffusion test of primer formulations; conditions: for zone of inhibition at 5 % strength: 5% by weight of compound; for zone of inhibition at 10 % strength: 10% by weight of compound
From the text: A test adapted from a commonly used method for determining the sensitivity of a bacterial strain to antibiotics in solution, known as Kirby-Bauer antibiotic testing or disc diffusion antibiotic sensitivity testing was used (Brown D F, Kothari D (1975), “Comparison of antibiotic discs from different sources”, J. Clin. Pathol. 28 (10): 779-83. Doi: 10.1136 /jcp.28.10.779). The test performed involves the use of discs imbued with a known concentration of the substance under examination that are placed on a layer of bacteria grown on agar. The diffusion of the bactericidal molecule from the disk into the agar causes the inhibition of bacterial growth in the area surrounding the disk itself where the molecule has spread with the formation of what are called zones of growth inhibition. The diameter of these inhibition zones (transparent circular regions in comparison to the bacterial film) is proportional to the antibacterial efficacy of the molecule to its concentration and to its diffusion ability in the medium.
The bactericidal properties of the compounds according to Examples 1, 3, 5, 6 and 7 were tested in various primer-type preparations, using the method “Bacterial inhibition determination-Agar diffusion test” described above. The disk soaked in the tested primer formulation without addition of compounds according to Examples 1, 3, 5, 6 and 7 was used as a negative reference.
For the tests, the following primer-type formulations were used, identified by the following codes: […]

[2] = system: E. coli (ATCC25922); test: Determination of the minimum inhibitory concentration (MIC); conditions: Escherichia coli
Protocol: (§1) A colony of bacterium taken from agar plate is inoculated in Brain Hearth Infusion medium (BHI) and grown overnight at 37° C. The next day, the bacteria are diluted in fresh medium containing the phenol red indicator, up to a density of 10^6 bacteria/mL.
(§2) A stock solution of 2 mg/mL of compound is prepared in BHI medium containing phenol red.
(§3) In a 96-well plate, the compound stock solution is diluted serially (the concentration is halved at each step) to obtain the following final concentrations after addition of the bacteria suspension: 1 mg/mL; 0.5 mg/mL; 0.25 mg/mL; 0.125 mg/mL; 0.065 mg/mL; 0.032 mg/mL; 0.016 mg/mL; 0.008 mg/mL; 0.004 mg/mL; 0.002 mg/mL; 0.001 mg/mL. A compound-free medium is used as a growth control. A volume of bacterial suspension equal to 0.5*10^6 bacteria/mL is added to each well containing the compound and the control. The dish is incubated at 37° C. for 24 hours. Bacterial growth in each well is detected by the phenol red, which turns from red to yellow following acidification of the medium induced by bacterial metabolism. The lowest concentration of the compound causing no evident color change corresponds to the MIC.
(§4) The compounds according to Examples 1, 3, 5, 6, and 7 were tested on bacterial strains different from S. mutans with the same methods described above, obtaining the MIC and MBC values reported in Table 2.

[3] = system: S. Sanguis (ATCC 10556); test: as above
Protocol: as §1, §2, §3, §4

[4] = system: S. Aureus (ATCC 25923); test: as above; conditions: Staphylococcus aureus, ATCC25923
Protocol: as §1, §2, §3, §4

[5] = system: S. Mitis (ATCC 49456); test: as above; conditions: Streptococcus mitis, ATCC49456
Protocol: as §1, §2, §3, §4

[6] = system: S. mutans (ATCC 25175); test: as above; conditions: Streptococcus mutans, ATCC25175; for MIC: against S. Mutans
Protocol: as §1, §2, §3
In order to test the antibacterial properties of the compounds prepared in Examples 1-8, on colonies of S. mutans (ATCC 25175), a bacterium commonly found in the human oral cavity, a test was set up to determine the minimum inhibitory concentration (MIC) and the minimum bactericidal concentration (MBC) according to the “Determination of minimum inhibitory concentration (MIC)” methods and “Determination of minimum bactericidal concentration (MBC)” described above.

[7] = system: primary cells from human dental pulp; test: Determination of the cytotoxicity (MTS assay); conditions: for maximum (tested) non-cytotoxic concentration: primary dental pulp cells
Protocol: Tested cells: primary from dental pulp in complete high glucose DMEM medium+1 mg ascorbic acid, seeded in 96-well dishes;
Cell viability detection method: MTS assay from Promega (CellTiter 96® AQueous One Solution Cell Proliferation Assay) colorimetric metabolic assay that allows to evaluate variations in the number of cells being a dye reduced by cellular dehydrogenases. The greater the number of cells, the greater the amount of reduced compound;
Execution time: 24 hours and 72 hours from treatment;
Negative control: cells seeded in complete DMEM medium (CNT) are used;
Number of samples: for 24 hours, 6 samples of each type; for 72 hours 8 samples of each type.
Procedure: Cells (6000/well) are seeded on a 96-well dish to form a monolayer at approximately 40% confluence. After 24 hours the medium is replaced by a medium in which the compound has previously been solubilized, sterilized by 0.22 micron filtration. Growth medium alone is used as a negative control (CNT). At the following 24 and 72 hours the colorimetric test is performed. The absorbance values for each sample are averaged and the standard deviation calculated. The percent viability is calculated on the negative control.
The compounds according to Examples 1, 5, 6, and 7 were tested in order to evaluate their cytotoxicity on primary cells from human dental pulp according to the “Determination of cytotoxicity” method described above, obtaining the values reported respectively in the following Tables 3, 4, 5, and 6. Cells were extracted from healthy third molars of patients after informed consent (Authorization Single Regional Committee FVG, study ID 2433, 29 Aug. 2018). After extraction, the stem cell nature was ascertained by evaluating the expression of the positive markers CD 90, CD 73, CD 29 and the negative markers CD 14, CD 34 and CD 45.

[8] = primer L1B, 1% by weight of compound
[9] = primer L3, 1% by weight of compound
[10] = primer PaA, 1% by weight of compound

Row | Compound | zone of inhibition at 1 % strength [1, 8] [mm] | MIC [2] [µg/mL] | MIC [3] [µg/mL] | MIC [4] [µg/mL] | MIC [5] [µg/mL] | MIC [6] [µg/mL] | % Viability 24 h ([7]; 10 μg/mL) [%] | % Viability 72 h ([7]; 10 μg/mL) [%] | % Viability 24 h ([7]; 50 μg/mL) [%] | % Viability 72 h ([7]; 50 μg/mL) [%] | % Viability 24 h ([7]; 100 μg/mL) [%] | % Viability 72 h ([7]; 100 μg/mL) [%] | % Viability 24 h ([7]; 500 μg/mL) [%] | % Viability 72 h ([7]; 500 μg/mL) [%] | zone of inhibition at 1 % strength [1, 9] [mm] | zone of inhibition at 1 % strength [1, 10] [mm] | % Viability 24 h ([7]; 1 μg/mL) [%] | % Viability 72 h ([7]; 1 μg/mL) [%] | maximum (tested) non-cytotoxic concentration [7] [µg/mL] | % Viability 24 h ([7]; 1 mg/mL) [%] | also measured
1 | C=C(C)C(=O)OCC[N+](C)(C)CCCCCCCCCCCC[N+](C)(C)CCOC(=O)C(=C)C.[Br-].[Br-] [Example 1] | 5 | 625 | 310 | 156 | 310 | 150 | 95.3 ± 12.5 | 110.0 ± 13.8 | 105.6 ± 11.2 | 111.0 ± 7.2 | 102.7 ± 7.2 | 122.4 ± 7.0 | 86.6 ± 5.5 | 115.3 ± 11.6 |  |  |  |  |  |  | zone of inhibition at 1 % strength ([1]; primer L1A, 1% by weight of compound): 15 mm; zone of inhibition at 5 % strength ([1]; primer L1A): 20 mm; zone of inhibition at 10 % strength ([1]; primer L1A): 25 mm; zone of inhibition at 5 % strength ([1]; primer L1B): 15 mm; zone of inhibition at 10 % strength ([1]; primer L1B): 19 mm; zone of inhibition at 1 % strength ([1]; primer L1C, 1% by weight of compound): 10 mm; zone of inhibition at 5 % strength ([1]; primer L1C): 15 mm; zone of inhibition at 10 % strength ([1]; primer L1C): 20 mm; decrease in cell viability [7]: did not show significant signs of decrease in cell viability; % Viability 24 h ([7]; 2 mg/mL): 80.6 ± 5.3%; % Viability 72 h ([7]; 2 mg/mL): 76.9 ± 8.4%
2 | C=C(C)C(=O)OCC[N+](CC)(CC)CCCCCCCCCCCC[N+](CC)(CC)CCOC(=O)C(=C)C.[Br-].[Br-] [Example 5] | 14 | 78 | 20 | 20 | 39 | 10 to 20 | 119.2 ± 6.8 | 69.7 ± 17.0 | 83.4 ± 4.5 | 70.8 ± 17.8 | 95.9 ± 7.2 | 68.8 ± 17.5 | 2.5 ± 1.0 |  | 13 | 12 | 124.2 ± 6.3 | 72.6 ± 16.5 | 100 |  | 
3 | C=C(C)C(=O)NCc1cc[n+](CCCCCCCCCCCC[n+]2ccc(CNC(=O)C(=C)C)cc2)cc1.[Br-].[Br-] [Example 7] | 17 | 2.5 | 10 | 2.5 | 20 | 2.5 | 105.9 ± 11.9 | 100.6 ± 17.7 | 96.1 ± 10.5 | 86.3 ± 16.4 | 91.7 ± 12.0 | 71.8 ± 13.4 | 91.9 ± 16.8 | 26.5 ± 5.1 | 14 | 13 | 110.8 ± 15.9 | 97.3 ± 17.5 | 50 | 49.1 ± 8.1 | % Viability 72 h ([7]; 1 mg/mL): 5.0 ± 2.3%
4 | C=C(C)C(=O)Nc1ccc([N+](C)(C)CCCCCCCCCCCC[N+](C)(C)c2ccc(NC(=O)C(C)=O)cc2)cc1.[Br-].[Br-] [Example 6] | 14 | 2 | 5 | 10 | 10 | 5 | 99.5 ± 13.5 | 97.7 ± 14 | 81.7 ± 8.2 | 71.5 ± 16.3 | 11.3 ± 2.1 | 2.0 ± 0.8 | 1.6 ± 0.9 | 2.6 ± 3.6 | 15 | 15 | 95.2 ± 13.2 | 103.2 ± 18.9 |  | 2.5 ± 0.9 | MBC ([6]; against the analyzed bacteria strains): 5 to 10 µg/mL; % Viability 72 h ([7]; 1 mg/mL): 3.5 ± 1.5%
